Assay results taken from patent US11731943B2, “Therapeutic compounds, compositions and methods of use thereof” (priority 2016, dated 2023).
Read-outs that look alike come from different tables or passages of the source.

What was measured:
[1] = biological target: isolated recombinant JAK1 kinase domain (Homo sapiens (Human), UniProt P23458); experiment: JAK1 enzyme assay (Caliper LabChip, Ki); format: biochemical
Protocol: (§1) JAK Enzyme Assays were carried out as follows:
(§2) The activity of the isolated recombinant JAK1 and JAK2 kinase domain was measured by monitoring phosphorylation of a peptide derived from JAK3 (Val-Ala-Leu-Val-Asp-Gly-Tyr-Phe-Arg-Leu-Thr-Thr, fluorescently labeled on the N-terminus with 5-carboxyfluorescein) using the Caliper LabChip® technology (Caliper Life Sciences, Hopkinton, Mass.). […] Reactions were incubated at 22° C. in 384-well polypropylene microtiter plates for 30 minutes and then stopped by addition of 25 μL of an EDTA containing solution (100 mM HEPES buffer (pH 7.2), 0.015% Brij-35, 150 mM EDTA), resulting in a final EDTA concentration of 50 mM. After termination of the kinase reaction, the proportion of phosphorylated product was determined as a fraction of total peptide substrate using the Caliper LabChip® 3000 according to the manufacturer's specifications. Ki values were then determined using the Morrison tight binding model (Morrison, J. F., Biochim. Biophys. Acta. 185:269-296 (1969); William, J. W. and Morrison, J. F., Meth. Enzymol., 63:437-467 (1979)) modified for ATP-competitive inhibition [Ki=Ki,app/(1+[ATP]/Km,app)].

[2] = biological target: isolated recombinant JAK2 kinase domain (Homo sapiens (Human), UniProt O60674); experiment: JAK2 enzyme assay (Caliper LabChip, Ki); format: biochemical
Chain of isolated recombinant JAK2 kinase domain (O60674 849-1124): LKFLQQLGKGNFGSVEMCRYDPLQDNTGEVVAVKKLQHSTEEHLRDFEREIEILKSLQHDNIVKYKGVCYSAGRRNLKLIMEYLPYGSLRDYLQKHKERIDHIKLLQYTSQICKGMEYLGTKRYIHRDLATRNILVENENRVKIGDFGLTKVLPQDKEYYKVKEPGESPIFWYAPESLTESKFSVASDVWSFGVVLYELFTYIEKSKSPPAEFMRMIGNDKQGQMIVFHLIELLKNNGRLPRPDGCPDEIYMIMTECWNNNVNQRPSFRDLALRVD
Protocol: as §1
as §2, with “([…]” for “(Val-Ala-Leu-Val-Asp-Gly-Tyr-Phe-Arg-Leu-Thr-Thr,”, “specifications.” for “specifications. Ki values were then determined using the Morrison tight binding model (Morrison, J. F., Biochim. Biophys. Acta. 185:269-296 (1969); William, J. W. and Morrison, J. F., Meth. Enzymol., 63:437-467 (1979)) modified for ATP-competitive inhibition [Ki=Ki,app/(1+[ATP]/Km,app)].”

Chain of isolated recombinant JAK1 kinase domain (P23458 875-1153): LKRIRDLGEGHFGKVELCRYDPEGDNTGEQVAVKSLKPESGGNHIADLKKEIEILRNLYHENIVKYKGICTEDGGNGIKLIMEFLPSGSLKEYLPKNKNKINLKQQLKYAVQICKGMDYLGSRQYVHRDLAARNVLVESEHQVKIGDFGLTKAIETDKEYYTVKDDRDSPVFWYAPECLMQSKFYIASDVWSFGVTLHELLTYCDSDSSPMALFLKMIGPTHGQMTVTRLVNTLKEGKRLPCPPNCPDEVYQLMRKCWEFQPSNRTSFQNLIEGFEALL

SMILES	Ki ([1]; read-out: JAK1 Ki) [nM]	Ki [2] [nM]	Ki [1] [nM]
CS(=O)(=O)c1ccccc1CN1CCC(CC#N)(n2cc(C(N)=O)c(NC(=O)C3CC3)n2)CC1 [Example 69]	15.2	124	–
CS(=O)(=O)c1cccc(CN2CCC(CC#N)(n3cc(C(N)=O)c(NC(=O)C4CC4)n3)CC2)c1 [Example 70]	31	> 319	–
CS(=O)(=O)c1ccc(CN2CCC(CC#N)(n3cc(C(N)=O)c(NC(=O)C4CC4)n3)CC2)cc1 [Example 71]	34.1	> 319	–
N#CCC1(n2cc(C(N)=O)c(NC(=O)C3CC3)n2)CCN(Cc2ccc3cc[nH]c3c2)CC1 [Example 72]	8.3	31.3	–
N#CCC1(n2cc(C(N)=O)c(NC(=O)C3CC3)n2)CCN(Cc2ccc3nc[nH]c3c2)CC1 [Example 73]	57.3	272	–
N#CCC1(n2cc(C(N)=O)c(NC(=O)C3CC3)n2)CCN(Cc2cccc(NS(=O)(=O)c3ccccc3)c2)CC1 [Example 74]	6.1	58.7	–
N#CCC1(n2cc(C(N)=O)c(NC(=O)C3CC3)n2)CCN(Cc2ccc(-c3ccn(C(F)(F)F)n3)cc2)CC1 [Example 83]	16.1	313	–
N#CCC1(n2cc(C(N)=O)c(NC(=O)C3CC3)n2)CCN(Cc2ccc(N3CCCC3)cc2)CC1 [Example 84]	85	> 319	–
N#CCC1(n2cc(C(N)=O)c(NC(=O)C3CC3)n2)CCN(Cc2ccc(-n3ccnc3)cc2)CC1 [Example 85]	45.1	170	–
N#CCC1(n2cc(C(N)=O)c(NC(=O)C3CC3)n2)CCN(Cc2ccc(-n3cncn3)cc2)CC1 [Example 86]	99.7	> 319	–
N#CCC1(n2cc(C(N)=O)c(NC(=O)C3CC3)n2)CCN(Cc2ccc(-n3cnc4ccccc43)cc2)CC1 [Example 88]	26.3	150	–
N#CCC1(n2cc(C(N)=O)c(NC(=O)C3CC3)n2)CCN(Cc2cnn(-c3ccccc3)c2)CC1 [Example 90]	7.2	133	–
N#CCC1(n2cc(C(N)=O)c(NC(=O)C3CC3)n2)CCN(Cc2ccc3c(c2)CSC3)CC1 [Example 91]	8.3	173	–
N#CCC1(n2cc(C(N)=O)c(NC(=O)C3CC3)n2)CCN(Cc2cccc(OC(F)F)c2)CC1 [Example 92]	10.9	88.1	–
N#CCC1(n2cc(C(N)=O)c(NC(=O)C3CC3)n2)CCN(Cc2cccc(NS(=O)(=O)C(F)(F)F)c2)CC1 [Example 93]	72.1	> 319	–
N#CCC1(n2cc(C(N)=O)c(NC(=O)C3CC3)n2)CCN(CCC(F)(F)F)CC1 [Example 96]	24.1	113	–
N#CCC1(n2cc(C(N)=O)c(NC(=O)C3CC3)n2)CCN(Cc2cccc(CN)c2)CC1 [Example 97]	41	163	–
N#CCC1(n2cc(C(N)=O)c(NC(=O)C3CC3)n2)CCN(C2CCN(C(=O)c3ccnc(C(F)(F)F)c3F)CC2)CC1 [Example 98]	74.6	152	–
CN[C@H]1CC[C@](CC#N)(n2cc(C(N)=O)c(NC(=O)C3CC3)n2)CC1 [Example 99]	–	> 319	92.2
CN[C@H]1CC[C@@](CC#N)(n2cc(C(N)=O)c(NC(=O)C3CC3)n2)CC1 [Example 100]	–	> 319	> 562
COC1CN([C@H]2CC[C@](CC#N)(n3cc(C(N)=O)c(NC(=O)C4CC4)n3)CC2)C1 [Example 101]	–	> 319	> 562
N#CC[C@]1(n2cc(C(N)=O)c(NC(=O)C3CC3)n2)CC[C@H](NC2CCOCC2)CC1 [Example 103]	–	> 319	38
N#CC[C@]1(n2cc(C(N)=O)c(NC(=O)C3CC3)n2)CC[C@@H](NC2CCOCC2)CC1 [Example 104]	–	> 319	> 562
CC1(C)CN([C@H]2CC[C@](CC#N)(n3cc(C(N)=O)c(NC(=O)C4CC4)n3)CC2)C1 [Example 105]	–	> 319	> 562
CC1(C)CN([C@H]2CC[C@@](CC#N)(n3cc(C(N)=O)c(NC(=O)C4CC4)n3)CC2)C1 [Example 106]	–	333	23.3

SMILES	Ki ([1]; read-out: JAK1 Ki) [nM]	Ki [2] [nM]	Ki [1] [nM]
N#CC[C@]1(n2cc(C(N)=O)c(NC(=O)C3CC3)n2)CC[C@@H](N2CC3(CCC3)C2)CC1 [Example 108]	–	205	466
N#CC[C@]1(n2cc(C(N)=O)c(NC(=O)C3CC3)n2)CC[C@H](NCc2ccccc2)CC1 [Example 109]	–	> 319	> 562
N#CC[C@]1(n2cc(C(N)=O)c(NC(=O)C3CC3)n2)CC[C@@H](NCc2ccccc2)CC1 [Example 110]	–	254	5.3
N#CC[C@]1(n2cc(C(N)=O)c(NC(=O)C3CC3)n2)CC[C@H](NCc2ccccc2F)CC1 [Example 111]	–	87.3	9.5
N#CC[C@]1(n2cc(C(N)=O)c(NC(=O)C3CC3)n2)CC[C@@H](NCc2ccccc2F)CC1 [Example 112]	–	> 319	> 562
N#CC[C@]1(n2cc(C(N)=O)c(NC(=O)C3CC3)n2)CC[C@H](NCc2cccc(F)c2)CC1 [Example 113]	–	187	14.4
N#CC[C@]1(n2cc(C(N)=O)c(NC(=O)C3CC3)n2)CC[C@@H](NCc2cccc(F)c2)CC1 [Example 114]	–	> 319	> 562
N#CC[C@]1(n2cc(C(N)=O)c(NC(=O)C3CC3)n2)CC[C@H](NCc2ccc(F)cc2)CC1 [Example 115]	–	300	21.9
N#CC[C@]1(n2cc(C(N)=O)c(NC(=O)C3CC3)n2)CC[C@@H](NCc2ccc(F)cc2)CC1 [Example 116]	–	> 319	164
N#CC[C@]1(n2cc(C(N)=O)c(NC(=O)C3CC3)n2)CC[C@@H](NCc2ccccc2Cl)CC1 [Example 118]	–	> 319	> 562
N#CC[C@]1(n2cc(C(N)=O)c(NC(=O)C3CC3)n2)CC[C@H](NCc2ccc(Cl)cc2)CC1 [Example 119]	–	> 319	437
N#CC[C@]1(n2cc(C(N)=O)c(NC(=O)C3CC3)n2)CC[C@@H](NCc2ccc(Cl)cc2)CC1 [Example 120]	–	115	12
N#CC[C@]1(n2cc(C(N)=O)c(NC(=O)C3CC3)n2)CC[C@H](NCc2ccc(C#N)cc2)CC1 [Example 121]	–	282	14.6
N#CC[C@]1(n2cc(C(N)=O)c(NC(=O)C3CC3)n2)CC[C@@H](NCc2ccc(C#N)cc2)CC1 [Example 122]	–	> 319	562
N#CC[C@]1(n2cc(C(N)=O)c(NC(=O)C3CC3)n2)CC[C@H](NCc2cccc(C#N)c2)CC1 [Example 123]	–	> 319	> 562
N#CC[C@]1(n2cc(C(N)=O)c(NC(=O)C3CC3)n2)CC[C@@H](NCc2cccc(C#N)c2)CC1 [Example 124]	–	273	32.7
N#CC[C@]1(n2cc(C(N)=O)c(NC(=O)C3CC3)n2)CC[C@H](NCCC(F)(F)F)CC1 [Example 125]	–	78.3	7.3
N#CC[C@]1(n2cc(C(N)=O)c(NC(=O)C3CC3)n2)CC[C@@H](NCCC(F)(F)F)CC1 [Example 126]	–	> 319	188
N#CC[C@]1(n2cc(C(N)=O)c(NC(=O)C3CC3)n2)CC[C@H](NCc2ccc(-c3ccccc3)cc2)CC1 [Example 127]	–	> 319	> 562
CN(CC(F)(F)F)[C@H]1CC[C@@](CC#N)(n2cc(C(N)=O)c(NC(=O)C3CC3)n2)CC1 [Example 130]	–	> 319	> 562
COC1(C(F)(F)F)CN([C@H]2CC[C@](CC#N)(n3cc(C(N)=O)c(NC(=O)C4CC4)n3)CC2)C1 [Example 132]	217	> 319	–
CC(C)OC1(C(F)(F)F)CN([C@H]2CC[C@](CC#N)(n3cc(C(N)=O)c(NC(=O)C4CC4)n3)CC2)C1 [Example 136]	463	> 319	–
N#CC[C@]1(n2cc(C(N)=O)c(NC(=O)C3CC3)n2)CC[C@H](N2CC(O)(C(F)(F)F)C2)CC1 [Example 138, 1-[1-(cyanomethyl)-4-[3-hydroxy-3-(trifluoromethyl)azetidin-1-yl]cyclohexyl]-3-(cyclopropanecarbonylamino) pyrazole-4-carboxamide]	> 562	> 319	–
CN(C)C(=O)c1ccccc1-c1ccc(CN2CCC(CC#N)(n3cc(C(N)=O)c(NC(=O)C4CC4)n3)CC2)cc1 [Example 144, 1-[4-(cyanomethyl)-1-[[4-[2-(dimethylcarbamoyl)phenyl]phenyl]methyl]-4-piperidyl]-3-(cyclopropanecarbonylamino) pyrazole-4-carboxamide]	8.8	63.5	–
